Measurements published in patent publication US20250312352A1, “GLP-1R MODULATING COMPOUNDS” (Gilead Sciences, Inc., priority 2021, published 2025).

Each compound was assayed against T1, GLP-1R (Homo sapiens, UniProt P43220) (assay: GLP-1R activation cAMP assay (Assay 1 or Assay 2)). Details: cAMP increase in CHO cells stably expressing GLP-1R; compounds run on one of the two cAMP assays.
T1 construct: host or cells: CHO cells
Type: cell-based
Procedure, shortened: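 CHO cells stably expressing human GLP-1R were incubated 1 h in HBSS/20 mM HEPES/0.1% BSA, then exposed to 10-point agonist dilutions for 30 min at 37 °C. cAMP increase was measured with an HTRF Gs dynamic kit; EC50 from sigmoidal fit of response versus log concentration.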

T1 sequence (P43220 24-463): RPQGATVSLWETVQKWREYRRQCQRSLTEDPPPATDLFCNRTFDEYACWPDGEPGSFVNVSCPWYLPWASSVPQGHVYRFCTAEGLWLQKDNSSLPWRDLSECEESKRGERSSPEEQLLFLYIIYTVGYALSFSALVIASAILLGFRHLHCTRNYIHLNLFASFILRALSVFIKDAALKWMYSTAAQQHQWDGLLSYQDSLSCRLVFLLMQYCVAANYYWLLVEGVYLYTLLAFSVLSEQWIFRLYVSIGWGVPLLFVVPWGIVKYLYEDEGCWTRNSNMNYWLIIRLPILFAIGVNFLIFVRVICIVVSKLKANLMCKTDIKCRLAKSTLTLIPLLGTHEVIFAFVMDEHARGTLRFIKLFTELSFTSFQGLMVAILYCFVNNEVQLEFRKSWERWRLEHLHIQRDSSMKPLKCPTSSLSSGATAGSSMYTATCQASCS

SMILES	EC50 [nM]
O=C(O)c1ccc2nc(Cc3cc(F)c(-c4cccc(OCc5nnc(C#CC6CC(F)(F)C6)s5)n4)cc3F)n(C[C@@H]3CCO3)c2c1 [Example 330, (S)-2-(4-(6-((5-((3,3-difluorocyclobutyl)ethynyl)-1,3,4-thiadiazol-2-yl)methoxy)pyridin-2-yl)-2,5-difluorobenzyl)-1-(oxetan-2-ylmethyl)-1H-benzo[d]imidazole-6-carboxylic acid]	0.431
Cc1cc(Cc2nc3ccc(C(=O)O)cc3n2C[C@@H]2CCO2)c(F)cc1-c1cccc(OCc2ncc(-c3cnn(C(F)F)c3)s2)n1 [Example 331, (S)-2-(4-(6-((5-(1-(difluoromethyl)-1H-pyrazol-4-yl)thiazol-2-yl)methoxy)pyridin-2-yl)-2-fluoro-5-methylbenzyl)-1-(oxetan-2-ylmethyl)-1H-benzo[d]imidazole-6-carboxylic acid]	0.58
O=C(O)c1ccc2nc(Cc3cc(F)c(-c4cccc(OCc5nc6c(s5)CCC6)n4)cc3F)n(C[C@@H]3CCO3)c2c1 [Example 332, (S)-2-(4-(6-((5,6-dihydro-4H-cyclopenta[d]thiazol-2-yl)methoxy)pyridin-2-yl)-2,5-difluorobenzyl)-1-(oxetan-2-ylmethyl)-1H-benzo[d]imidazole-6-carboxylic acid]	0.109
O=C(O)c1ccc2nc(Cc3cc(F)c(-c4cccc(OCc5ncc(C#CC6CCC6)s5)n4)cc3F)n(C[C@@H]3CCO3)c2c1 [Example 333, (S)-2-(4-(6-((5-(cyclobutylethynyl)thiazol-2-yl)methoxy)pyridin-2-yl)-2,5-difluorobenzyl)-1-(oxetan-2-ylmethyl)-1H-benzo[d]imidazole-6-carboxylic acid]	0.205
CC(C)(O)C#Cc1cnc(COc2cccc(-c3cc(F)c(Cc4nc5ccc(C(=O)O)cc5n4C[C@@H]4CCO4)cc3F)n2)s1 [Example 334, (S)-2-(2,5-difluoro-4-(6-((5-(3-hydroxy-3-methylbut-1-yn-1-yl)thiazol-2-yl)methoxy)pyridin-2-yl)benzyl)-1-(oxetan-2-ylmethyl)-1H-benzo[d]imidazole-6-carboxylic acid]	0.354
O=C(O)c1ccc2nc(Cc3cc(F)c(-c4cccc(OCc5ncc(C#CC6(C(F)(F)F)CC6)s5)n4)cc3F)n(C[C@@H]3CCO3)c2c1 [Example 335, (S)-2-(2,5-difluoro-4-(6-((5-((1-(trifluoromethyl)cyclopropyl)ethynyl)thiazol-2-yl)methoxy)pyridin-2-yl)benzyl)-1-(oxetan-2-ylmethyl)-1H-benzo[d]imidazole-6-carboxylic acid]	0.202
O=C(O)c1ccc2nc(Cc3cc(F)c(-c4cccc(OCc5ncc(C#CC6CC(F)(F)C6)s5)n4)cc3F)n(C[C@@H]3CCO3)c2c1 [Example 336, (S)-2-(4-(6-((5-((3,3-difluorocyclobutyl)ethynyl)thiazol-2-yl)methoxy)pyridin-2-yl)-2,5-difluorobenzyl)-1-(oxetan-2-ylmethyl)-1H-benzo[d]imidazole-6-carboxylic acid]	0.261
Cc1cc(Cc2nc3ccc(C(=O)O)cc3n2[C@@H]2COCC2(C)C)c(F)cc1-c1ccc(F)c(OCc2ncc(C(C)(F)F)s2)n1 [Example 337, (S)-2-(4-(6-((5-(1,1-difluoroethyl)thiazol-2-yl)methoxy)-5-fluoropyridin-2-yl)-2-fluoro-5-methylbenzyl)-1-(4,4-dimethyltetrahydrofuran-3-yl)-1H-benzo[d]imidazole-6-carboxylic acid]	1.2
CC(F)(F)c1cnc(COc2nc(-c3cc(F)c(Cc4nc5c(F)cc(C(=O)O)cc5n4[C@@H]4COCC4(C)C)cc3F)ccc2F)s1 [Example 338, (S)-2-(4-(6-((5-(1,1-difluoroethyl)thiazol-2-yl)methoxy)-5-fluoropyridin-2-yl)-2,5-difluorobenzyl)-1-(4,4-dimethyltetrahydrofuran-3-yl)-4-fluoro-1H-benzo[d]imidazole-6-carboxylic acid]	0.218
COc1nnc(COc2nc(-c3cc(F)c(Cc4nc5ccc(C(=O)O)cc5n4[C@@H]4COCC4(C)C)cc3F)ccc2F)s1 [Example 339, (S)-2-(2,5-difluoro-4-(5-fluoro-6-((5-methoxy-1,3,4-thiadiazol-2-yl)methoxy)pyridin-2-yl)benzyl)-1-(4,4-dimethyltetrahydrofuran-3-yl)-1H-benzo[d]imidazole-6-carboxylic acid]	0.043
CC(F)(F)c1cnc(COc2nc(-c3cc(F)c(Cc4nc5ccc(C(=O)O)cc5n4[C@@H]4COCC4(C)C)cc3F)ccc2F)s1 [Example 340, (S)-2-(4-(6-((5-(1,1-difluoroethyl)thiazol-2-yl)methoxy)-5-fluoropyridin-2-yl)-2,5-difluorobenzyl)-1-(4,4-dimethyltetrahydrofuran-3-yl)-1H-benzo[d]imidazole-6-carboxylic acid]	0.058
CC1(C)COCC1n1c(Cc2cc(F)c(-c3cccc(OCc4ncc(C(F)F)s4)n3)cc2F)nc2c(F)cc(C(=O)O)cc21 (centres unmarked) [Example 341, 2-(4-(6-((5-(difluoromethyl)thiazol-2-yl)methoxy)pyridin-2-yl)-2,5-difluorobenzyl)-1-(4,4-dimethyltetrahydrofuran-3-yl)-4-fluoro-1H-benzo[d]imidazole-6-carboxylic acid]	0.772
COc1nnc(COc2cccc(-c3cc(F)c(Cc4nc5ccc(C(=O)O)cc5n4[C@@H]4COCC4(C)C)cc3F)n2)s1 [Example 342, (S)-2-(2,5-difluoro-4-(6-((5-methoxy-1,3,4-thiadiazol-2-yl)methoxy)pyridin-2-yl)benzyl)-1-(4,4-dimethyltetrahydrofuran-3-yl)-1H-benzo[d]imidazole-6-carboxylic acid]	0.039
CC1(COc2nnc(COc3cccc(-c4cc(F)c(Cc5nc6ccc(C(=O)O)cc6n5C[C@@H]5CCO5)cc4F)n3)s2)CC1 [Example 343, (S)-2-(2,5-difluoro-4-(6-((5-((1-methylcyclopropyl)methoxy)-1,3,4-thiadiazol-2-yl)methoxy)pyridin-2-yl)benzyl)-1-(oxetan-2-ylmethyl)-1H-benzo[d]imidazole-6-carboxylic acid]	0.459
O=C(O)c1ccc2nc(Cc3cc(F)c(-c4cccc(OCc5nnc(OC6CCC6)s5)n4)cc3F)n(C[C@@H]3CCO3)c2c1 [Example 344, (S)-2-(4-(6-((5-cyclobutoxy-1,3,4-thiadiazol-2-yl)methoxy)pyridin-2-yl)-2,5-difluorobenzyl)-1-(oxetan-2-ylmethyl)-1H-benzo[d]imidazole-6-carboxylic acid]	0.055
COc1nnc(COc2cccc(-c3cc(F)c(Cc4nc5c(F)cc(C(=O)O)cc5n4[C@@H]4COCC4(C)C)cc3F)n2)s1 [Example 345, (S)-2-(2,5-difluoro-4-(6-((5-methoxy-1,3,4-thiadiazol-2-yl)methoxy)pyridin-2-yl)benzyl)-1-(4,4-dimethyltetrahydrofuran-3-yl)-4-fluoro-1H-benzo[d]imidazole-6-carboxylic acid]	0.027
COc1nnc(COc2nc(-c3cc(F)c(Cc4nc5c(F)cc(C(=O)O)cc5n4[C@@H]4COCC4(C)C)cc3F)ccc2F)s1 [Example 346, (S)-2-(2,5-difluoro-4-(5-fluoro-6-((5-methoxy-1,3,4-thiadiazol-2-yl)methoxy)pyridin-2-yl)benzyl)-1-(4,4-dimethyltetrahydrofuran-3-yl)-4-fluoro-1H-benzo[d]imidazole-6-carboxylic acid]	0.027
